{
  "source": "paper PMC10215804",
  "about": "“Exploring Alternative Pathways to Target Bacterial Type II Topoisomerases Using NBTI Antibacterials: Beyond Halogen-Bonding Interactions” (Antibiotics, 2023)",
  "origin": "cited, not measured here",
  "key": {"S. aureus DNA gyrase": {"biological_target": "T1, S. aureus DNA gyrase (Staphylococcus aureus, UniProt P20831)", "T1 construct": "purchased Inspiralis (Norwich, UK)", "T1 sequence (P20831 whole entry)": "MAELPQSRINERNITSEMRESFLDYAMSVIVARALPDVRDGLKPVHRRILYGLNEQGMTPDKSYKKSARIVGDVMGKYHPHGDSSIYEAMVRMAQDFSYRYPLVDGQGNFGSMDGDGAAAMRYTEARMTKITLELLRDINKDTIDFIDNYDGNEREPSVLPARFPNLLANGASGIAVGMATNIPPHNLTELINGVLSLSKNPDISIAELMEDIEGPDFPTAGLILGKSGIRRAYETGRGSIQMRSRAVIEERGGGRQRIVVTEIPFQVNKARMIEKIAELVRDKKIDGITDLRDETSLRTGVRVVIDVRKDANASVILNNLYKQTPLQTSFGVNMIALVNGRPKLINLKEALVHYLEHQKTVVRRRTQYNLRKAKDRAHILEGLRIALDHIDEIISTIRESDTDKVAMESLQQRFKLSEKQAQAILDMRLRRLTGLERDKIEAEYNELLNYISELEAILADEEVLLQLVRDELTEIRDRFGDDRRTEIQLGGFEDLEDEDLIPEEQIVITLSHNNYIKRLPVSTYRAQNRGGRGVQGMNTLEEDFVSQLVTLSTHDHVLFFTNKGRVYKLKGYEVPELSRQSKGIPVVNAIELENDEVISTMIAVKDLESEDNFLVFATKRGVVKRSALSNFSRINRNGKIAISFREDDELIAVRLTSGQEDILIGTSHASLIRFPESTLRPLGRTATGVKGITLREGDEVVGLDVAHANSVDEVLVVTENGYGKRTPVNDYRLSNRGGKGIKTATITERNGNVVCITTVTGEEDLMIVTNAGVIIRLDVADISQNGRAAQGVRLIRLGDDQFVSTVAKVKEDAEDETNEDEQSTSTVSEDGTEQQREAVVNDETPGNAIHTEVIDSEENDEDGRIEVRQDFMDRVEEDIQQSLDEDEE", "T1 sequence (P0A0K8 whole entry partner)": "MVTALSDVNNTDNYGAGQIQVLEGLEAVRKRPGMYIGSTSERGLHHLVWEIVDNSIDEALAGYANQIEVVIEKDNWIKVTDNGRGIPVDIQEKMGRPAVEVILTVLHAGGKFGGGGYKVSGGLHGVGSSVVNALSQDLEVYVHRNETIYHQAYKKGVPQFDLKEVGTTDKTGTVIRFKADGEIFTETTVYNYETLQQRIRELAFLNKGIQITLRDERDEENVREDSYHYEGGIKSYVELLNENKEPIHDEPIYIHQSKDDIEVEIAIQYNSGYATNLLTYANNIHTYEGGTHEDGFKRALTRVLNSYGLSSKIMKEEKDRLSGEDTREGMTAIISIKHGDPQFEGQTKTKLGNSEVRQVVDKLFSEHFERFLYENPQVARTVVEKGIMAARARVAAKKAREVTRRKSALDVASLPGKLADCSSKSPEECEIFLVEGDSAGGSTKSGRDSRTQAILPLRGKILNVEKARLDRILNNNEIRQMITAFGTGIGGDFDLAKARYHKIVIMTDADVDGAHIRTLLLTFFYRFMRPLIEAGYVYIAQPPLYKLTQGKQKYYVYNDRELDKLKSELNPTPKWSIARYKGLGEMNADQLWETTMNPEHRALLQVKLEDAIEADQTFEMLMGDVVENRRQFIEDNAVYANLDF", "conditions": "supercoiling inhibition; cited from earlier work"}, "E. coli DNA gyrase": {"biological_target": "T2, E. coli DNA gyrase (Escherichia coli, UniProt P0AES4)", "T2 construct": "purchased Inspiralis (Norwich, UK)", "conditions": "supercoiling inhibition; cited from earlier work"}, "S. aureus topoIV": {"biological_target": "T3, S. aureus topoIV (Staphylococcus aureus, UniProt P0C1U9)", "T3 construct": "purchased Inspiralis (Norwich, UK)", "T3 sequence (P0C1U9 whole entry)": "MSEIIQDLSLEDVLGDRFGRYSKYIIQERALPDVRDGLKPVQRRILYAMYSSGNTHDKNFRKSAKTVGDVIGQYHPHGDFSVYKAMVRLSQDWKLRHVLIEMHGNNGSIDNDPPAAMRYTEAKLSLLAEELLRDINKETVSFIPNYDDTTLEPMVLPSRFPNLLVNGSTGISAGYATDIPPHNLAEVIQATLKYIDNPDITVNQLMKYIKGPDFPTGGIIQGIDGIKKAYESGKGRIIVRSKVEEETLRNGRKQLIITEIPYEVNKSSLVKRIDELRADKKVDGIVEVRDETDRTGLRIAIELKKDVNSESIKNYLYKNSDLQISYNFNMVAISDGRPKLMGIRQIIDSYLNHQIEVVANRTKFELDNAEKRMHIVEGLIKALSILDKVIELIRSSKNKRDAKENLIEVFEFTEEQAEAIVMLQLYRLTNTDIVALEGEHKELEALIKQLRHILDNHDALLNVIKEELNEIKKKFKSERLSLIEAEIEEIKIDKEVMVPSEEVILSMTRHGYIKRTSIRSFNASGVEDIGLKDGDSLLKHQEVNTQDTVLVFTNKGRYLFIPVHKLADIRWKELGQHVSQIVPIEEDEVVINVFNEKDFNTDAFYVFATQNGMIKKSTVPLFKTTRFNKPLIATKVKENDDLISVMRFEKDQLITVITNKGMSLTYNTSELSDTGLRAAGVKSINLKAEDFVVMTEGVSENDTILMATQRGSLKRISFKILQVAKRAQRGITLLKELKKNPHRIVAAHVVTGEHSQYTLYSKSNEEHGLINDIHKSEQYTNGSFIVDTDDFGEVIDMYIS", "T3 sequence (P0C1S7 whole entry partner)": "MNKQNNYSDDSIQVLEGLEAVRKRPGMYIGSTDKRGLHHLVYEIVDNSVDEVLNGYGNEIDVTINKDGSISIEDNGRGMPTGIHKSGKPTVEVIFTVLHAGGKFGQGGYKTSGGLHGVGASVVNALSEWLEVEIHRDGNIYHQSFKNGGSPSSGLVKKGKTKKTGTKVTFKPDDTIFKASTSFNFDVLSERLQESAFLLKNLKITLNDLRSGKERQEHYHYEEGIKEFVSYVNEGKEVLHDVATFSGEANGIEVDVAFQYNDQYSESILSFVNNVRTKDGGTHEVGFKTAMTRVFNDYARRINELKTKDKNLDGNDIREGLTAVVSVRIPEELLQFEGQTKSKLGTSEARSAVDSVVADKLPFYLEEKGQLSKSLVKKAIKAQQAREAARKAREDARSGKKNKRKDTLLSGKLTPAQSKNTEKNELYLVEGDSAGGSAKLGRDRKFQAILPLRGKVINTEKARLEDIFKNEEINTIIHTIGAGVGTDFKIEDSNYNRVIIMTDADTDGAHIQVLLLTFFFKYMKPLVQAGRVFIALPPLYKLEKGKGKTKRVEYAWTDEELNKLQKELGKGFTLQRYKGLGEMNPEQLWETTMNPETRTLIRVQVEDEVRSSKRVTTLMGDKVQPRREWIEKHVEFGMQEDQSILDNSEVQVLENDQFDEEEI", "conditions": "relaxation inhibition; cited from earlier work"}, "E. coli topoIV": {"biological_target": "T4, E. coli topoIV (Escherichia coli, UniProt P0AFI2)", "T4 construct": "purchased Inspiralis (Norwich, UK)", "T4 sequence (P20083 whole entry)": "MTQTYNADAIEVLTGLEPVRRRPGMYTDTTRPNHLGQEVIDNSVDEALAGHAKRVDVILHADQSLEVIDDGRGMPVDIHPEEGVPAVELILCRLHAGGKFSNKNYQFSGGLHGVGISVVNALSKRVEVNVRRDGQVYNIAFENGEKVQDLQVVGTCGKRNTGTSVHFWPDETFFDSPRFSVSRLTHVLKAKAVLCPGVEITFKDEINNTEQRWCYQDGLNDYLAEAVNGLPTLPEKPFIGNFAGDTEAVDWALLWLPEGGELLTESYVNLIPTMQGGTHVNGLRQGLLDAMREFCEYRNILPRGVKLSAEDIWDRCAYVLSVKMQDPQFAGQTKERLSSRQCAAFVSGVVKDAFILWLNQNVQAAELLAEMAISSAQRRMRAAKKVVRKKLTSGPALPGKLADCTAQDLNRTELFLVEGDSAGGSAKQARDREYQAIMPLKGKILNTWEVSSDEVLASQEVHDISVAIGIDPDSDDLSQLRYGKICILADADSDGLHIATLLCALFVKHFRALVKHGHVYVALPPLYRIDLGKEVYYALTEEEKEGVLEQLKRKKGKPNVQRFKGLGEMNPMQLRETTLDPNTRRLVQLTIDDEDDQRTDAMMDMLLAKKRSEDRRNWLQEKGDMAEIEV", "T4 sequence (P0AFI2 whole entry)": "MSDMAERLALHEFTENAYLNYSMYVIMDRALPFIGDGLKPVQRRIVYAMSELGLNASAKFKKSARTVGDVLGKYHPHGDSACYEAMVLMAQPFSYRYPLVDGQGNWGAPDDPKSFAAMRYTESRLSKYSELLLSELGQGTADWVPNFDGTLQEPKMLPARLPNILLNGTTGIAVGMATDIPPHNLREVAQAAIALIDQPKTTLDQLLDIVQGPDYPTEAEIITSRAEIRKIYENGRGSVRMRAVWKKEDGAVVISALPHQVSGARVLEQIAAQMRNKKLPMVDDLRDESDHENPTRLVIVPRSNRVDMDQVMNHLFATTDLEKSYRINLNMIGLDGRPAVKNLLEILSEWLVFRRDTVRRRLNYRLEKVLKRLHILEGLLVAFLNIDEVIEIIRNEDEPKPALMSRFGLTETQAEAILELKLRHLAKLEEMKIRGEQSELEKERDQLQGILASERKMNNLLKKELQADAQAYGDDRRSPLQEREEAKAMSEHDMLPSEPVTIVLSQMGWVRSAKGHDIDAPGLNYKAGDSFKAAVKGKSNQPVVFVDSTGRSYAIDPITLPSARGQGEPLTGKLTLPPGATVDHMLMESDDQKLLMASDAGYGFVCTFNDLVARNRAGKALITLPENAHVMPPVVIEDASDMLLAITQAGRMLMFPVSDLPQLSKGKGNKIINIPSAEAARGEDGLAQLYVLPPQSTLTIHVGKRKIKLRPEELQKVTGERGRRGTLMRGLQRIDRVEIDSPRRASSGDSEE", "conditions": "relaxation inhibition; cited from earlier work"}, "human topoisomerase IIα": {"biological_target": "T5, human topoisomerase IIα (Homo sapiens, UniProt P11388)", "T5 construct": "purchased Inspiralis (Norwich, UK)", "conditions": "residual activity at 100 µM compound; cited from earlier work"}, "S. aureus (ATCC 29213)": {"test_system": "S. aureus (ATCC 29213)", "conditions": "cited from earlier work"}, "MRSA (QA-11.7)": {"test_system": "MRSA (QA-11.7)", "conditions": "cited from earlier work"}, "MRSA(QA-12.1)": {"test_system": "MRSA(QA-12.1)", "design": "method as in PMID 35970069", "conditions": "cited from earlier work"}, "MRSA (QA-11.2)": {"test_system": "MRSA (QA-11.2)", "design": "method as in PMID 35970069", "conditions": "cited from earlier work"}, "E. coli (ATCC 25922)": {"test_system": "E. coli (ATCC 25922)", "conditions": "cited from earlier work"}, "E. coli D22": {"test_system": "E. coli D22", "conditions": "lpxC mutation; cited from earlier work"}, "E. coli N43 (CGSC# 5583)": {"test_system": "E. coli N43 (CGSC# 5583)", "conditions": "AcrA knockout; cited from earlier work"}, "E. coli ESBL QA-11.3": {"test_system": "E. coli ESBL QA-11.3", "design": "method as in PMID 35970069", "conditions": "cited from earlier work"}, "K. pneumoniae": {"test_system": "K. pneumoniae", "design": "method as in PMID 35970069", "conditions": "cited from earlier work"}, "P. aeruginosa RDK 184": {"test_system": "P. aeruginosa RDK 184", "conditions": "cited from earlier work"}, "E. faecalis RDK 057": {"test_system": "E. faecalis RDK 057", "conditions": "cited from earlier work"}, "VRE": {"test_system": "VRE", "conditions": "cited from earlier work"}, "A. baumannii": {"test_system": "A. baumannii", "design": "method as in PMID 35970069", "conditions": "cited from earlier work"}},
  "data": [
    {"compound": "COc1ccc2nccc(C(O)CC3CC[C@H](NCc4ccc(Br)cc4)CO3)c2n1", "note": "(stereo partly drawn) [Compound 4]", "values": [
      {"measurement": "IC50", "setting": "S. aureus DNA gyrase", "value": "65 ± 2", "unit": "nM"},
      {"measurement": "IC50", "setting": "E. coli DNA gyrase", "value": "1570 ± 404", "unit": "nM"},
      {"measurement": "IC50", "setting": "S. aureus topoIV", "value": "> 100000", "unit": "nM"},
      {"measurement": "IC50", "setting": "E. coli topoIV", "value": "52 ± 3", "unit": "nM"},
      {"measurement": "Human TopoIIα (% RA at 100 µM)", "setting": "human topoisomerase IIα", "value": "106 ± 0", "unit": "%"},
      {"measurement": "MIC S. aureus (ATCC 29213)", "setting": "S. aureus (ATCC 29213)", "value": 0.016, "unit": "µg/mL"},
      {"measurement": "MIC MRSA (QA-11.7)", "setting": "MRSA (QA-11.7)", "value": 0.016, "unit": "µg/mL"},
      {"measurement": "MIC MRSA(QA-12.1)", "setting": "MRSA(QA-12.1)", "value": 0.016, "unit": "µg/mL"},
      {"measurement": "MIC MRSA (QA-11.2)", "setting": "MRSA (QA-11.2)", "value": 0.031, "unit": "µg/mL"},
      {"measurement": "MIC E. coli (ATCC 25922)", "setting": "E. coli (ATCC 25922)", "value": 16, "unit": "µg/mL"},
      {"measurement": "MIC E. coli D22", "setting": "E. coli D22", "value": 1, "unit": "µg/mL"},
      {"measurement": "MIC E. coli N43 (CGSC# 5583)", "setting": "E. coli N43 (CGSC# 5583)", "value": 0.25, "unit": "µg/mL"},
      {"measurement": "MIC E. coli ESBL QA-11.3", "setting": "E. coli ESBL QA-11.3", "value": ">128", "unit": "µg/mL"},
      {"measurement": "MIC K. pneumoniae", "setting": "K. pneumoniae", "value": 128, "unit": "µg/mL"},
      {"measurement": "MIC P. aeruginosa RDK 184", "setting": "P. aeruginosa RDK 184", "value": 128, "unit": "µg/mL"},
      {"measurement": "MIC E. faecalis RDK 057", "setting": "E. faecalis RDK 057", "value": 0.5, "unit": "µg/mL"},
      {"measurement": "MIC VRE", "setting": "VRE", "value": 0.032, "unit": "µg/mL"},
      {"measurement": "MIC A. baumannii", "setting": "A. baumannii", "value": ">128", "unit": "µg/mL"}
    ]},
    {"compound": "COc1ccc2nccc(OC[C@H]3CC[C@H](NCc4ccc(Br)cc4)CO3)c2n1", "note": "[Compound 3]", "values": [
      {"measurement": "IC50", "setting": "S. aureus DNA gyrase", "value": "294 ± 100", "unit": "nM"},
      {"measurement": "IC50", "setting": "E. coli DNA gyrase", "value": "7740 ± 2310", "unit": "nM"},
      {"measurement": "IC50", "setting": "S. aureus topoIV", "value": "> 100000", "unit": "nM"},
      {"measurement": "IC50", "setting": "E. coli topoIV", "value": "131 ± 40", "unit": "nM"},
      {"measurement": "Human TopoIIα (% RA at 100 µM)", "setting": "human topoisomerase IIα", "value": "105 ± 1", "unit": "%"},
      {"measurement": "MIC S. aureus (ATCC 29213)", "setting": "S. aureus (ATCC 29213)", "value": 0.125, "unit": "µg/mL"},
      {"measurement": "MIC MRSA (QA-11.7)", "setting": "MRSA (QA-11.7)", "value": 0.5, "unit": "µg/mL"},
      {"measurement": "MIC MRSA(QA-12.1)", "setting": "MRSA(QA-12.1)", "value": 0.125, "unit": "µg/mL"},
      {"measurement": "MIC MRSA (QA-11.2)", "setting": "MRSA (QA-11.2)", "value": 0.25, "unit": "µg/mL"},
      {"measurement": "MIC E. coli (ATCC 25922)", "setting": "E. coli (ATCC 25922)", "value": 128, "unit": "µg/mL"},
      {"measurement": "MIC E. coli D22", "setting": "E. coli D22", "value": 8, "unit": "µg/mL"},
      {"measurement": "MIC E. coli N43 (CGSC# 5583)", "setting": "E. coli N43 (CGSC# 5583)", "value": 8, "unit": "µg/mL"},
      {"measurement": "MIC E. coli ESBL QA-11.3", "setting": "E. coli ESBL QA-11.3", "value": ">128", "unit": "µg/mL"},
      {"measurement": "MIC K. pneumoniae", "setting": "K. pneumoniae", "value": 128, "unit": "µg/mL"},
      {"measurement": "MIC P. aeruginosa RDK 184", "setting": "P. aeruginosa RDK 184", "value": 128, "unit": "µg/mL"},
      {"measurement": "MIC E. faecalis RDK 057", "setting": "E. faecalis RDK 057", "value": 2, "unit": "µg/mL"},
      {"measurement": "MIC VRE", "setting": "VRE", "value": 1, "unit": "µg/mL"},
      {"measurement": "MIC A. baumannii", "setting": "A. baumannii", "value": ">128", "unit": "µg/mL"}
    ]},
    {"compound": "COc1ccc2nccc(OCC3CCC(NCc4ccc(Br)cc4)CC3)c2n1", "note": "(stereo not drawn) [Compound 2]", "values": [
      {"measurement": "IC50", "setting": "S. aureus DNA gyrase", "value": "372 ± 2", "unit": "nM"},
      {"measurement": "IC50", "setting": "E. coli DNA gyrase", "value": "4800 ± 774", "unit": "nM"},
      {"measurement": "IC50", "setting": "S. aureus topoIV", "value": "> 100000", "unit": "nM"},
      {"measurement": "IC50", "setting": "E. coli topoIV", "value": "495 ± 184", "unit": "nM"},
      {"measurement": "Human TopoIIα (% RA at 100 µM)", "setting": "human topoisomerase IIα", "value": "106 ± 3", "unit": "%"},
      {"measurement": "MIC S. aureus (ATCC 29213)", "setting": "S. aureus (ATCC 29213)", "value": 0.125, "unit": "µg/mL"},
      {"measurement": "MIC MRSA (QA-11.7)", "setting": "MRSA (QA-11.7)", "value": 0.25, "unit": "µg/mL"},
      {"measurement": "MIC MRSA(QA-12.1)", "setting": "MRSA(QA-12.1)", "value": 0.25, "unit": "µg/mL"},
      {"measurement": "MIC MRSA (QA-11.2)", "setting": "MRSA (QA-11.2)", "value": 0.5, "unit": "µg/mL"},
      {"measurement": "MIC E. coli (ATCC 25922)", "setting": "E. coli (ATCC 25922)", "value": 64, "unit": "µg/mL"},
      {"measurement": "MIC E. coli D22", "setting": "E. coli D22", "value": 8, "unit": "µg/mL"},
      {"measurement": "MIC E. coli N43 (CGSC# 5583)", "setting": "E. coli N43 (CGSC# 5583)", "value": 1, "unit": "µg/mL"},
      {"measurement": "MIC E. coli ESBL QA-11.3", "setting": "E. coli ESBL QA-11.3", "value": 128, "unit": "µg/mL"},
      {"measurement": "MIC K. pneumoniae", "setting": "K. pneumoniae", "value": 128, "unit": "µg/mL"},
      {"measurement": "MIC P. aeruginosa RDK 184", "setting": "P. aeruginosa RDK 184", "value": 32, "unit": "µg/mL"},
      {"measurement": "MIC E. faecalis RDK 057", "setting": "E. faecalis RDK 057", "value": 1, "unit": "µg/mL"},
      {"measurement": "MIC VRE", "setting": "VRE", "value": 1, "unit": "µg/mL"},
      {"measurement": "MIC A. baumannii", "setting": "A. baumannii", "value": 128, "unit": "µg/mL"}
    ]}
  ]
}
